Test results taken from US9568466B2, “In vitro assay for predicting renal proximal tubular cell toxicity” (priority 2012, dated 2017).

Tests used:
[1] = system: renal proximal tubule; conditions: in vivo; cited from earlier work
[2] = system: human primary renal proximal tubular cells (HPTC); test: HPTC exposed to test compound, nuclear staining and F-actin detection, morphology and cell numbers; conditions: HPTC isolated from fresh human kidney samples; 0.2 mg/ml; 16 hours

Compound | nephrotoxicity in humans / direct damage of the renal proximal tubule [1] | cell numbers (number of cell nuclei) [2] | morphological changes (F-actin) [2]
OCCO [Compound 30, Ethylene glycol] | nephrotoxic in humans, but do not damage directly the renal proximal tubule | – | –
[Ge+4].[O-2].[O-2] [Compound 15, Germanium(IV) oxide] | nephrotoxic in humans and damage directly the renal proximal tubule | – | –
N[C@@H](Cc1cc(I)c(Oc2ccc(O)c(I)c2)c(I)c1)C(=O)O [Compound 39, Triiodothyronine] | non-nephrotoxic in humans | – | –
Cl[C@H]1[C@H](Cl)[C@@H](Cl)[C@@H](Cl)[C@H](Cl)[C@H]1Cl [Compound 29, Lindane] | nephrotoxic in humans, but do not damage directly the renal proximal tubule | – | –
CO[C@H]1/C=C/O[C@@]2(C)Oc3c(C)c(O)c4c(O)c(c(/C=N/N5CCN(C)CC5)c(O)c4c3C2=O)NC(=O)/C(C)=C\C=C\[C@H](C)[C@H](O)[C@@H](C)[C@@H](O)[C@@H](C)[C@H](OC(C)=O)[C@@H]1C [Compound 3, Rifampicin] | nephrotoxic in humans and damage directly the renal proximal tubule | – | –
CC(C)[C@H](N)C(=O)OCCOCn1cnc2c(=O)[nH]c(N)nc21 [Compound 31, Valacyclovir] | nephrotoxic in humans, but do not damage directly the renal proximal tubule | – | –
COc1ccc(C[C@H](N)C(=O)N[C@H]2[C@@H](O)[C@H](n3cnc4c(N(C)C)ncnc43)O[C@@H]2CO)cc1 [Compound 5, Puromycin] | nephrotoxic in humans and damage directly the renal proximal tubule | – | –
Gentamicin | nephrotoxic in humans and damage directly the renal proximal tubule | decrease in cell numbers | morphological changes
[Cl][Au] [Compound 16, Gold(I) chloride] | nephrotoxic in humans and damage directly the renal proximal tubule | – | –
CC1=C2C(=CO[C@H](C)[C@H]2C)C(O)=C(C(=O)O)C1=O [Compound 21, Citrinin] | nephrotoxic in humans and damage directly the renal proximal tubule | – | –
CCC[C@@H]1C[C@@H](C(=O)N[C@@H]([C@H]2O[C@H](SC)[C@H](O)[C@@H](O)[C@H]2O)[C@@H](C)O)N(C)C1 [Compound 32, Lincomycin] | nephrotoxic in humans, but do not damage directly the renal proximal tubule | – | –
O=P1(NCCCl)OCCCN1CCCl (stereo not shown) [Compound 9, Ifosfamide] | nephrotoxic in humans and damage directly the renal proximal tubule | – | –
CC(=O)OCC1=C(C(=O)O)N2C(=O)[C@@H](NC(=O)CCC[C@@H](N)C(=O)O)[C@H]2SC1 [Compound 6, Cephalosporin C] | nephrotoxic in humans and damage directly the renal proximal tubule | – | –
NCC(=O)O [Compound 35, Glycine] | non-nephrotoxic in humans | – | –
NC[C@H]1O[C@H](O[C@H]2[C@H](O)[C@@H](O[C@H]3O[C@H](CO)[C@@H](O)[C@H](N)[C@H]3O)[C@H](N)C[C@@H]2N)[C@H](N)C[C@@H]1O [Compound 2, Tobramycin] | nephrotoxic in humans and damage directly the renal proximal tubule | – | –
CCOc1ccc(NC(C)=O)cc1 [Compound 24, Phenacetin] | nephrotoxic in humans, but do not damage directly the renal proximal tubule | – | –
C=CC[C@@H]1/C=C(\C)C[C@H](C)C[C@H](OC)[C@H]2O[C@@](O)(C(=O)C(=O)N3CCCC[C@H]3C(=O)O[C@H](/C(C)=C/[C@@H]3CC[C@@H](O)[C@H](OC)C3)[C@H](C)[C@@H](O)CC1=O)[C@H](C)C[C@@H]2OC [Compound 19, Tacrolimus] | nephrotoxic in humans and damage directly the renal proximal tubule | – | –
C[C@@H]1C[C@H]2[C@@H]3CCC4=CC(=O)C=C[C@]4(C)[C@@]3(F)[C@@H](O)C[C@]2(C)[C@@]1(O)C(=O)CO [Compound 36, Dexamethasone] | non-nephrotoxic in humans | – | –
C[n+]1ccc(-c2cc[n+](C)cc2)cc1 [Compound 10, Paraquat] | nephrotoxic in humans and damage directly the renal proximal tubule | – | –
N[C@@H](Cc1ccc(O)c(O)c1)C(=O)O [Compound 38, Levodopa (DOPA)] | non-nephrotoxic in humans | – | –
O=c1[nH]cc(F)c(=O)[nH]1 [Compound 7, 5-Fluorouracil] | nephrotoxic in humans and damage directly the renal proximal tubule | – | –
COc1ccc2[nH]cc(CCNC(C)=O)c2c1 [Compound 37, Melatonin] | non-nephrotoxic in humans | – | –
[Cl-].[Li+] [Compound 28, Lithium chloride] | nephrotoxic in humans, but do not damage directly the renal proximal tubule | – | –
